Measured values as given in patent publication US20170234889A1, “hGH Determination for Use to Guide Prevention of a Major Adverse Cardiac Event or a Cardiovascular Disease in a Subject” (Sphingotec GmbH, priority 2014, published 2017).

Tests used:
Type in all cases: in vivo, human
[1] = tested on: subjects with plaque in the right carotid artery but no symptoms of carotid artery disease; test: BCAPS: carotid ultrasound intima media thickness (IMT); details: 36 months; for IMTbulb, median: maximum IMT at the carotid bifurcation; for IMTcca, median: mean IMT in the common carotid artery
Excerpt: The β-Blocker Cholesterol-Lowering Asymptomatic Plaque Study (BCAPS) was a randomized, double blind, placebo-controlled, single-center clinical trial that took place between 1994 and 1999. A detailed description of BCAPS can be found in the original paper (Hedblad et al. 2001. Circulation 103: 1721-1726), following here is a brief summary. The original study population consisted of 361 men and 432 women (total n=793) 49 to 70 years of age recruited from MDC-CC. Subjects included in BCAPS had plaque in the right carotid artery but no symptoms of carotid artery disease. Exclusion criteria were: myocardial infarction, angina pectoris or stroke within the previous 3 months; previous surgery in the right carotid artery; regular use of β-blockers or statins; blood pressure >160 (systolic) or >95 (diastolic) mm Hg; total cholesterol >8.0 mmol/l; hyperglycemia suspected to require insulin treatment; and conditions that in the view of the investigator made the participant unsuitable for the trial. The study consisted of 4 different treatment groups and the participants were randomized to 1 of the following: placebo/placebo, metoprolol CR/XL (25 mg once daily)/placebo, fluvastatin (40 mg once daily)/placebo or metoprolol CR/XL (25 mg once daily)/fluvastatin (40 mg once daily). Carotid ultrasound was performed at baseline, 18 and 36 months (Hedblad et al. 2001. Circulation 103: 1721-1726). In brief, a predefined extent of the right carotid bifurcation was scanned for presence of plaques and the maximum IMT at the bifurcation (IMTbulb) and the mean IMT in the common carotid artery ([…]) was measured.

[2] = tested on: subjects with plaque in the right carotid artery but no symptoms of carotid artery disease; test: BCAPS: fasting plasma hs-GH under treatment; details: for Growth Hormone - females, geometric mean / Growth Hormone - males, geometric mean: 12 months of treatment, fasting plasma
Excerpt: The β-Blocker Cholesterol-Lowering Asymptomatic Plaque Study (BCAPS) was a randomized, double blind, placebo-controlled, single-center clinical trial that took place between 1994 and 1999. A detailed description of BCAPS can be found in the original paper (Hedblad et al. 2001. Circulation 103: 1721-1726), following here is a brief summary. The original study population consisted of 361 men and 432 women (total n=793) 49 to 70 years of age recruited from MDC-CC. Subjects included in BCAPS had plaque in the right carotid artery but no symptoms of carotid artery disease. Exclusion criteria were: myocardial infarction, angina pectoris or stroke within the previous 3 months; previous surgery in the right carotid artery; regular use of β-blockers or statins; blood pressure >160 (systolic) or >95 (diastolic) mm Hg; total cholesterol >8.0 mmol/l; hyperglycemia suspected to require insulin treatment; and conditions that in the view of the investigator made the participant unsuitable for the trial. The study consisted of 4 different treatment groups and the participants were randomized to 1 of the following: placebo/placebo, metoprolol CR/XL (25 mg once daily)/placebo, fluvastatin (40 mg once daily)/placebo or metoprolol CR/XL (25 mg once daily)/fluvastatin (40 mg once daily). The treatment period was 36-months. Fasting blood samples were drawn at baseline and at 12, 24 and 36 months. HDL-C, total cholesterol and TG were measured according to standard procedures at the Department of Clinical Chemistry, University Hospital of Malmö. LDL-C levels were calculated according to the Friedewald formula. GH levels were measured in stored fasting plasma samples, which were frozen immediately to −80° C. at the different examinations. A number of the samples stored in the freezer were missing or had insufficient plasma for the analysis of hs-GH. Subjects in which either the baseline-value of GH or the 12-month value of GH was missing were excluded from further analysis. After this adjustment the study consisted of 472 individuals. All samples were measured using the hs-hGH immunoassay as described above. In the analyses where treatment groups are compared, the groups are either the 4 randomization groups or they are divided in to 2 groups which are fluvastatin vs non-fluvastatin (i.e placebo) or metoprolol vs non-metoprolol. Since fasting hs-GH is known to differ between men and women all models were performed separate for men and women as well as combined. All models were adjusted for age, sex (if not already gender separated) and the natural logarithm of the fasting level of hs-GH at baseline. To investigate if fasting hs-GH was affected by treatment with fluvastatin or metoprolol we performed multiple regression analysis with ΔGH (baseline value subtracted from 12 month value) as the dependent variable and the treatment groups as independent variables.

[3] = tested on: subjects with plaque in the right carotid artery but no symptoms of carotid artery disease; test: BCAPS: LDL-C under treatment; details: 12 months of treatment
Excerpt: The β-Blocker Cholesterol-Lowering Asymptomatic Plaque Study (BCAPS) was a randomized, double blind, placebo-controlled, single-center clinical trial that took place between 1994 and 1999. A detailed description of BCAPS can be found in the original paper (Hedblad et al. 2001. Circulation 103: 1721-1726), following here is a brief summary. The original study population consisted of 361 men and 432 women (total n=793) 49 to 70 years of age recruited from MDC-CC. Subjects included in BCAPS had plaque in the right carotid artery but no symptoms of carotid artery disease. […] HDL-C, total cholesterol and TG were measured according to standard procedures at the Department of Clinical Chemistry, University Hospital of Malmö. LDL-C levels were calculated according to the Friedewald formula. GH levels were measured in stored fasting plasma samples, which were frozen immediately to −80° C. at the different examinations. […] All samples were measured using the hs-hGH immunoassay as described above.

[4] = tested on: patients with acute myocardial infarction; test: AMI cohort: Cox regression and Kaplan-Meier analysis for MACE at 2 years post-AMI
Procedure: We studied 953 STEMI and NSTEMI patients admitted to University Hospitals of Leicester NHS trust between August 2004 and April 2007. This observational cohort study complied with the Declaration of Helsinki and was approved by the local ethics committee; written informed consent was obtained from patients. […] Patients with known malignancy, renal replacement therapy or surgery in the previous month were excluded. Estimated glomerular filtration rate (eGFR) was calculated from the simplified Modification of Diet in Renal Disease formula (Smilde T D, van Veldhuisen D J, Navis G, Voors A A, Hillege H L. Drawbacks and prognostic value of formulas estimating renal function in patients with chronic heart failure and systolic dysfunction. Circulation 2006; 114:1572-80). All patients received standard medical treatment and revascularisation was at the discretion of the attending physician.
Plasma samples: Blood samples (anticoagulated with EDTA and aprotinin) were drawn after 15 minutes bed rest, immediately after diagnosis and within 36 h of symptom onset. Plasma was stored at −80° C. until assayed in a single batch for blinded determination of plasma hGH.
During follow-up over 2 years, there were 281 MACE, the primary composite endpoint (comprising 117 deaths, 71 HF hospitalisations and 93 re-AMIs). […]

[5] = FEMALE, all receiving the drug vs individuals not receiving it
[6] = FEMALE, model All groups, each compared against placebo
[7] = MALE, all receiving the drug vs individuals not receiving it
[8] = MALE, model All groups, each compared against placebo
[9] = gender ALL, all receiving the drug vs individuals not receiving it
[10] = gender ALL, model All groups, each compared against placebo

For `CC(C)n1c(/C=C/C(O)CC(O)CC(=O)O)c(-c2ccc(F)cc2)c2ccccc21` (centres unmarked) [Fluvastatin], the “IMTbulb, median” value [1] was 2.02, the “IMTcca, median” value [1] was 0.87 and the “Growth Hormone - females, geometric mean” value [2] was 810 pg/mL. The “Growth Hormone - males, geometric mean” value [2] was 160 pg/mL, the “B, multiple linear regression of ΔGH (12 months - baseline) vs treatment group” value [2, 5] was 0.41 and the “B, multiple linear regression of ΔGH (12 months - baseline) vs treatment group” value [2, 6] was 0.02. The “B, multiple linear regression of ΔGH (12 months - baseline) vs treatment group” value [2, 7] was −0.37, the “B, multiple linear regression of ΔGH (12 months - baseline) vs treatment group” value [2, 8] was −0.36 and the “B, multiple linear regression of ΔGH (12 months - baseline) vs treatment group” value [2, 9] was 0.12. For the same molecule, the “B, multiple linear regression of ΔGH (12 months - baseline) vs treatment group” value [2, 10] was −0.11 and the “LDL-C, mean” value [3] was 3.27 mmol/L.
With `COCCc1ccc(OCC(O)CNC(C)C)cc1` (centres unmarked) [Metoprolol] the “IMTbulb, median” value [1] was 1.89, the “IMTcca, median” value [1] was 0.90 and the “Growth Hormone - females, geometric mean” value [2] was 860 pg/mL. For the same molecule, the “Growth Hormone - males, geometric mean” value [2] was 170 pg/mL, the “B, multiple linear regression of ΔGH (12 months - baseline) vs treatment group” value [2, 5] was 0.33 and the “B, multiple linear regression of ΔGH (12 months - baseline) vs treatment group” value [2, 6] was −0.06. For the same molecule, the “B, multiple linear regression of ΔGH (12 months - baseline) vs treatment group” value [2, 7] was −0.27, the “B, multiple linear regression of ΔGH (12 months - baseline) vs treatment group” value [2, 8] was −0.26 and the “B, multiple linear regression of ΔGH (12 months - baseline) vs treatment group” value [2, 9] was 0.13. The “B, multiple linear regression of ΔGH (12 months - baseline) vs treatment group” value [2, 10] was −0.11 and the “LDL-C, mean” value [3] was 4.17 mmol/L.
For `CC(=O)Oc1ccccc1C(=O)O` [Aspirin], the “Univariable HR (95% CI) for MACE” value [4] was 0.54 (0.41-0.72).
